Measured values reported in patent publication US20230219912A1, “HALOGENATED BENZOTHIADIAZINES FOR THE TREATMENT OF CANCER” (BOARD OF REGENTS OF THE UNIVERSITY OF NEBRASKA, priority 2020, published 2023).
Entries after “also recorded” stand apart in the source; their conditions may differ.

What was measured:
[1] = system: 22Rv1 prostate cancer cells; experiment: MTS cytotoxicity assay in 22Rv1 prostate cancer cells; details: for effect on cell viability of prostate cancer cells: 100 μM up to 72 hours
Outline: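 Cells seeded at 1×10^5 per well and dosed after 24 h at the indicated concentrations (final DMSO <1%), then incubated 48-72 hours at 37° C, 5% CO2. MTS added for 2-4 hr; absorbance at 490 nm, viability expressed as percentage of controls.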

IRAK1 = IRAK1 (Homo sapiens, UniProt P51617); details: 100 μM; cited from earlier work
[2] = system: MDA-MB-468 triple negative breast cancer cells; experiment: MTS cytotoxicity assay in MDA-MB-468 triple negative breast cancer cells; type: cell-based; details: 10, 50 and 100 μM for 24, 48 and 72 hours, MTS
Protocol: The assay was performed as follows.
Derivatives were dosed at 10, 50 and 100 μM for 24, 48 and 72 hours and cell viability measured by MTS assay (FIG. 5).

DYRK1A = DYRK1A (Homo sapiens, UniProt Q13627); details: 100 μM; cited from earlier work
MDA-MB-468 TNBC cells = details: cited from earlier work
[3] = system: hormone-dependent mammary carcinomas; details: 300 mg/kg, rats; cited from earlier work
TTK = target: T1, TTK (Homo sapiens, UniProt P33981); details: 100 μM; cited from earlier work
T1 sequence (P33981 1-857): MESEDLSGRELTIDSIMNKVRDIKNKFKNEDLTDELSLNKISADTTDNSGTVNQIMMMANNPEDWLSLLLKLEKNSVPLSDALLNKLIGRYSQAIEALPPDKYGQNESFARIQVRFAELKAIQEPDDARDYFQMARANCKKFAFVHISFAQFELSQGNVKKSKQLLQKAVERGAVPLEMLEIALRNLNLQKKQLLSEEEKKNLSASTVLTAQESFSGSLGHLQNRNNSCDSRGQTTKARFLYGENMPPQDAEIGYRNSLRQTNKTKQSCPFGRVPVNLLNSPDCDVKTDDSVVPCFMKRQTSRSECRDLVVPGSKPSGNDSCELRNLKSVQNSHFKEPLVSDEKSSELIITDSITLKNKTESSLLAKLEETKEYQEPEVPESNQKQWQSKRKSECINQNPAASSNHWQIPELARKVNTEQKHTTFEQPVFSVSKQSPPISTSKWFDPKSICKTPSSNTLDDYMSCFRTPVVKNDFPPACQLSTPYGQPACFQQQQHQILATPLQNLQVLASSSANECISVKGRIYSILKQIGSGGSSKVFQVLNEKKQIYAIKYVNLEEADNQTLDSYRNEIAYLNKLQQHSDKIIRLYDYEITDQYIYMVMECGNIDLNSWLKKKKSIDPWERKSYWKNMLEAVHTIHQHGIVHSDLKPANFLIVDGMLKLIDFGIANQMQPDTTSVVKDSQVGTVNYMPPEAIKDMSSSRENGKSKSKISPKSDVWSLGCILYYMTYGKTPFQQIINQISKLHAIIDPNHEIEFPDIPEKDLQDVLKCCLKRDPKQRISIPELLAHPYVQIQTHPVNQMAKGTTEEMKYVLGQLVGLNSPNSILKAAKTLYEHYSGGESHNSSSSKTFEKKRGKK

[4] = system: phosphorylated vascular endothelial growth factor receptor-2 (VEGFR2); experiment: Western blot of pVEGFR2 in VEGF-treated HUVEC cells; type: cell-based, human; details: 20 μM, VEGF 10 ng/mL, 5 min
Protocol: Cells were treated with test compounds (20 μM) along with VEGF (10 ng/mL) for 5 min. The DMSO was used as a negative control, whereas DMSO+VEGF was used as a positive control. Cells were lysed using RIPA buffer (10 mmol/L Tris-HCl, 1 mmol/L EDTA, 0.5 mmol/L EGTA, 1% Triton X-100, 0.1% sodium deoxycholate, 0.1% SDS and 140 mmol/L NaCl), supplemented with protease and phosphatase inhibitors (Halt Protease and Phosphatase Inhibitor). Cell lysates were centrifuged, and the supernatants were mixed with appropriate amount of 5×SDS loading buffer. Proteins were resolved on polyacrylamide gel and transferred onto nitrocellulose/PVDF membrane, blocked for 1 hour with 10% milk block prepared in 0.1% Tween 20 in 1×PBS (PBST), and treated with pVEGFR2 primary antibody at 4° C. overnight. The membrane was washed thrice with PBST, 5 minutes each, and treated with secondary antibody for 1 hour. The membrane was further washed three times, 5 minutes each, with PBST and developed using chemiluminescence, and the bands were analyzed using densitometry.

IRAK1, sequence (P51617 whole entry): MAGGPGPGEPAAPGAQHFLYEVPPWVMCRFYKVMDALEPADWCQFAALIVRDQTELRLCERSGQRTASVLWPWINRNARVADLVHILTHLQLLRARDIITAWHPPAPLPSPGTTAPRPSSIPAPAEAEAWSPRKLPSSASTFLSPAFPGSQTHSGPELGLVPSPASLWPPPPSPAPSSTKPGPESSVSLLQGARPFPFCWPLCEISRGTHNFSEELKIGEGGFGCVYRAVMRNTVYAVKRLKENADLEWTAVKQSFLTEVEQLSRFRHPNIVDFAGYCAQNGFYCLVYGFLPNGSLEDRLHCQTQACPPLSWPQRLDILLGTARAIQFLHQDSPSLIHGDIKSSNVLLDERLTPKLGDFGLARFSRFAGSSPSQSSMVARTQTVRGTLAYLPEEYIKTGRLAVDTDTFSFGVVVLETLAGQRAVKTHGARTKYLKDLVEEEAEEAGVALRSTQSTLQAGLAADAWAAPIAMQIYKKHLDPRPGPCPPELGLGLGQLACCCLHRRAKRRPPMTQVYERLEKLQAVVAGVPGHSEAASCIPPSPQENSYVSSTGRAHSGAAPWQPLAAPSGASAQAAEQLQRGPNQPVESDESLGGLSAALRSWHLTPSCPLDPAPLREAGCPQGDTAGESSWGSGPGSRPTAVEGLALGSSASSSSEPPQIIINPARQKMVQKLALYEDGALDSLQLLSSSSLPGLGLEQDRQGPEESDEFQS

With `CC1=Nc2ccc(Cl)cc2S(=O)(=O)N1` [Diazoxide, 7-chloro-3-methyl-2H-1,2,4-benzothiadiazine 1,1-dioxide, reference compound] the “effect on cell viability of prostate cancer cells” value [1] was “no effect to reduce cell viability”, the “effect on cell viability of prostate cancer cells” value ([1]; listed as 9) was “no effect on cell viability” and the cytotoxicity at 100 µM ([1]; Homo sapiens, 22Rv1, 48 h, read-out: reduction of 22Rv1 cell viability) was 12%. For the same compound, the “inhibition of IRAK1” value (IRAK1) was 9%, the “effect on MDA-MB 468 TNBC cell viability” value [2] was “no effect to reduce cell viability; also recorded: little activity to reduce TNBC cell viability” and the “effect on MDA-MB 468 TNBC cell viability” value ([2]; listed as 9) was “no effect on cell viability”. For the same compound, the “inhibition of DYRK1A” value (DYRK1A) was 7%, the IC50 (MDA-MB-468 TNBC cells) was 870 nM and the adverse effect [3] was “mild reversible diabetes”. For the same compound, the “inhibition of tumor growth” value [3] was 90%, the “inhibition of TTK” value (TTK) was 15% and the “attenuation of pVEGFR2 expression” value [4] was “good activity to suppress pVEGFR2”.
